Experimental data published in patent US9233977B2, “Leucine-rich repeat kinase enzyme activity” (Merck Sharp & Dohme Corp., priority 2010, dated 2016).

Each compound was assayed against T1, LRRK2 G2019S mutant kinase (Homo sapiens, UniProt Q5S007, G2019S) (assay: LRRK2 G2019S LanthaScreen TR-FRET kinase assay). Details: LRRK2 G2019S GST-tagged protein, 75 nM Fluorescein-ERM (LRRKtide), 100 μM ATP, 1 hour at room temperature; read-out: IC50 (potency).
T1 construct: GST; purchased Invitrogen PV4882
Type: biochemical
Description: The final solvent concentration in the assay was 1% DMSO. […] Generation of raw data and workup of data to derive the IC50 (potency) and maximal inhibition at concentrations tested were performed using Merck's Assay Data Analyzer (ADA) software.
The IC50 (potency) was evaluated for the example compounds presented above.

T1 sequence (Q5S007 whole entry G2019S): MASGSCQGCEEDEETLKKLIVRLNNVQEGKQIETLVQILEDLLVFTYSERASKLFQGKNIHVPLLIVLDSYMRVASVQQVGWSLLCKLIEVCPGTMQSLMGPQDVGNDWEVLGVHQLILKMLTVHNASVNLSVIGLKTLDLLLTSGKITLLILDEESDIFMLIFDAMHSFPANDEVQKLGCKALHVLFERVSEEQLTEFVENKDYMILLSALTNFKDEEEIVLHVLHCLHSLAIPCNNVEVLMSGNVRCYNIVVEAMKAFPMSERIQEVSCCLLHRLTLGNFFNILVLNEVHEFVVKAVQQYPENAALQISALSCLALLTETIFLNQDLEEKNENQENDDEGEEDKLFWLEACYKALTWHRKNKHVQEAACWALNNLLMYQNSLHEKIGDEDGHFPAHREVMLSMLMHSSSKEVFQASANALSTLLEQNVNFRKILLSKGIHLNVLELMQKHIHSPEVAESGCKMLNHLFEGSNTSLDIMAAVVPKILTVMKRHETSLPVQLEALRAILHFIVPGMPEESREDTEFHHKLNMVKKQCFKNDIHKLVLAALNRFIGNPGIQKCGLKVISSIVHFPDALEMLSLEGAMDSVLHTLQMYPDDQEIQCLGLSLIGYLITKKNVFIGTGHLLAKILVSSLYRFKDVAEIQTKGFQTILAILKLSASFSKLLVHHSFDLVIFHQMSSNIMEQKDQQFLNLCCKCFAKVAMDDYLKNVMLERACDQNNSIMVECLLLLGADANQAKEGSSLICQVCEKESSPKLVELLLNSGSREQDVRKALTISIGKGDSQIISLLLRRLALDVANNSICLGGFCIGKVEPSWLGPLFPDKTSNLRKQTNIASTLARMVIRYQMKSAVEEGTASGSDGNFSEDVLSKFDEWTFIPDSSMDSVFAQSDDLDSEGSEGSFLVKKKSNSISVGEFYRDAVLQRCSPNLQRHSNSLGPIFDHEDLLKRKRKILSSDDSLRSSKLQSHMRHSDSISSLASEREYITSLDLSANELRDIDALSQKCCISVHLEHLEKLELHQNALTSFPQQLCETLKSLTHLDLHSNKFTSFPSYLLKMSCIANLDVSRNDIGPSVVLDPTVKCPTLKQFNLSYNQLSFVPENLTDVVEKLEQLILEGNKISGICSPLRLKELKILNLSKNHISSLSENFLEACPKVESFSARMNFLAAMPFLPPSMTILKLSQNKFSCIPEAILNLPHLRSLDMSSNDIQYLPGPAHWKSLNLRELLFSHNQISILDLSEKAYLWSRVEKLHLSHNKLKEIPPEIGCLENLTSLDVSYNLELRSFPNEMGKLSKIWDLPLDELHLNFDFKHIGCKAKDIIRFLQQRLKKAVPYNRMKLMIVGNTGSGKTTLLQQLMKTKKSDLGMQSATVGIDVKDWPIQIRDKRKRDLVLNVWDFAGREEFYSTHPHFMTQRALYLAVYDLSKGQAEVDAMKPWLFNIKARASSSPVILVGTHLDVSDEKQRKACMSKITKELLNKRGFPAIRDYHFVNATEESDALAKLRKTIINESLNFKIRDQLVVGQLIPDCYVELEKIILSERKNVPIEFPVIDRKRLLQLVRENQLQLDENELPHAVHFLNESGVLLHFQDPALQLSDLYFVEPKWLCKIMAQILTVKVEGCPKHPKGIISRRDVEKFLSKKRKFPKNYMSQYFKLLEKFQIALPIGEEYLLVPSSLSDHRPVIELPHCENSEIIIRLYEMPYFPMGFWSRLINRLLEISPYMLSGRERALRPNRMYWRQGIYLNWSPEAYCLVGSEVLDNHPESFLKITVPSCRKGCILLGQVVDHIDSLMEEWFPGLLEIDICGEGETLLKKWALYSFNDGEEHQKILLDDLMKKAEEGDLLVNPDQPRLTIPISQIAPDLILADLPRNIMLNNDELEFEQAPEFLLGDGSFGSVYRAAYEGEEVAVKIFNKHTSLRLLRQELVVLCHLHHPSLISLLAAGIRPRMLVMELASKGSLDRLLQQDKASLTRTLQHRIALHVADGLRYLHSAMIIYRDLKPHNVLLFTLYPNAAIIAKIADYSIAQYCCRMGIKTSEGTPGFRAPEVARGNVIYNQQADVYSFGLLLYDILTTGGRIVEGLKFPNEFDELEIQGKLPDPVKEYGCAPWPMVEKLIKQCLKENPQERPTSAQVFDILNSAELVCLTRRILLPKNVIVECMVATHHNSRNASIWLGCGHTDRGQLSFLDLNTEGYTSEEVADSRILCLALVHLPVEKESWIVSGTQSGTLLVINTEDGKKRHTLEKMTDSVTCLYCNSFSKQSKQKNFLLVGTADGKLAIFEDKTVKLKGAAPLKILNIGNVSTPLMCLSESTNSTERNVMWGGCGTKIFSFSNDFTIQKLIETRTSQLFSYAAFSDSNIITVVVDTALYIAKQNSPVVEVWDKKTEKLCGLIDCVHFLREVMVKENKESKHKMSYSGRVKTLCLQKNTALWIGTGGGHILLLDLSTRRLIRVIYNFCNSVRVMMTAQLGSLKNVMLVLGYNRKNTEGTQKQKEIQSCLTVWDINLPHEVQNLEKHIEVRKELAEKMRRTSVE

Point of comparison: CSc1sc(-c2cc[nH]n2)c2c1C(=O)N(CCCCC#N)CC2 [Example 70, 5-[3-(methylsulfanyl)-4-oxo-1-(1H-pyrazol-3-yl)-6,7-dihydrothieno[3,4H)-yl]pentanenitrile], IC50 2.5 µM. Against it:
- CSc1sc(-c2cc[nH]n2)c2c1C(=O)N[C@H](c1cccnc1)C2 [Example 19, (6S)-3-(methylsulfanyl)-6-(3-pyridyl)-1-(1H-pyrazol-3-yl)-6,7-dihydrothieno[3,4-c]pyridin-4(5)-one] — 1.7-fold lower, 1.5 µM
- CCSc1sc(-c2cc[nH]n2)c2c1C(=O)NCC2 [Example 42, 3-ethylsulfanyl-1-(1H-pyrazol-3-yl)-6,7-dihydrothieno[3,4-c]pyridin-4(5)-one] — 6.9-fold lower, 0.36 µM
- CSc1sc(-c2cc[nH]n2)c2c1C(=O)N(c1ccccc1F)CC2 [Example 85, 5-(2-fluorophenyl)-3-(methylsulfanyl)-1-(1H-pyrazol-3-yl)-6,7-dihydrothieno[3,4-c]pyridin-4(5)-one] — within 1.5-fold, 3.1 µM
- CSc1sc(-c2cc[nH]n2)c2c1C(=O)N(CCN1CCOCC1)CC2 [Example 67, 3-(methylsulfanyl)-5-[2-(morpholin-4-yl)ethyl]-1-(1H-pyrazol-3-yl)-6,7-dihydrothieno[3,4-c]pyridin-4(5)-one] — 3.7-fold higher, 9.2 µM
- CSc1sc(-c2cc[nH]n2)c2c1C(=O)N(C(=O)OC(C)(C)C)C1(CCC1)C2 [Example 6, tert-butyl-6-methyl-3′-(methylsulfanyl)-4′-oxo-1′-(1H-pyrazol-3-yl)-7′H-spiro[cyclobutane-1,6′-thieno[3,4-1]pyridine]-5′(4′H)-carboxylate] — within 1.5-fold, 3.1 µM
- CSc1sc(-c2cc[nH]n2)c2c1C(=O)N(CC1CCCCO1)CC2 (stereo not drawn) [Example 63, 5-[(2-tetrahydropyranyl)methyl]-3-(methylsulfanyl)-1-(1H-pyrazol-3-yl)-6,7-dihydrothieno[3,4-c]pyridin-4(5)-one] — 3.4-fold higher, 8.4 µM
- CSc1sc(-c2cc[nH]n2)c2c1C(=O)N(Cc1cccnc1)CC2 [Example 61, 5-[(3-pyridinyl)methyl]-3-(methylsulfanyl)-1-(1H-pyrazol-3-yl)-6,7-dihydrothieno[3,4-c]pyridin-4(5)-one] — within 1.5-fold, 2.1 µM
- O=C(O)CSc1sc(-c2cc[nH]n2)c2c1C(=O)NCC2 [Example 46, 1-{[4-oxo-1-(1H-pyrazol-3-yl)-4,5,6,7-tetrahydrothieno[3,4-c]pyridin-3-yl]sulfanyl}acetic acid] — within 1.5-fold, 3.1 µM
- CCN(CC)CCSc1sc(-c2cc[nH]n2)c2c1C(=O)NCC2 [Example 39, 3-{[2-{diethylamino)ethyl]sulfanyl}-1-(1H-pyrazol-3-yl)-6,7-dihydrothieno[3,4-c]pyridin-4(5)-one] — 2.3-fold higher, 5.7 µM
- CSc1sc(-c2cc[nH]n2)c2c1C(=O)N(CCc1ccccn1)CC2 [Example 78, 3-(methylsulfanyl)-5-[2-(2-pyridyl)ethyl]-1-(1H-pyrazol-3-yl)-6,7-dihydrothieno[3,4-c]pyridin-4(5)-one] — 2.3-fold higher, 5.7 µM
- O=C1NCCc2c(-c3cc[nH]n3)sc(SCCCO)c21 [Example 38] — 3.9-fold lower, 0.64 µM
- CCCSc1sc(-c2cc[nH]n2)c2c1C(=O)NCC2 [Example 43, 3-propylsulfanyl-1-(1H-pyrazol-3-yl)-6,7-dihydrothieno[3,4-c]pyridin-4(5)-one] — 10-fold lower, 0.25 µM
- O=C1NCCc2c(-c3cc[nH]n3)sc(NC3CCCC3)c21 [Example 90, 3-(cyclopentylamino)-(1H-pyrazol-3-yl)-6,7-dihydrothieno[3,4-c]pyridin-4(5H)-one] — 6.9-fold lower, 0.36 µM
- C[C@@H]1Cc2c(-c3cc[nH]n3)sc(SCC(=O)O)c2C(=O)N1 [Example 52, (6R)-6-methyl-1-{[4-oxo-1-(1H-pyrazol-3-yl)-4,5,6,7-tetrahydrothieno[3,4-c]pyridin-3-yl]sulfanyl}acetic acid] — within 1.5-fold, 2.7 µM
- CSc1sc(-c2cc[nH]n2)c2c1C(=O)N(Cc1ccncc1)CC2 [Example 72, 5-[(4-pyridyl)methyl]-3-(methylsulfanyl)-1-(1H-pyrazol-3-yl)-6,7-dihydrothieno[3,4-c]pyridin-4(5)-one] — 3.2-fold higher, 7.9 µM
- CSc1sc(-c2cc[nH]n2)c2c1C(=O)NC(Cc1ccccc1)C2 (stereo not drawn) [Example 2, 6-benzyl-3-(methylsulfanyl)-1-(1H-pyrazol-3-yl)-6,7-dihydrothieno[3,4-c]pyridin-4(5)-one] — 9.6-fold lower, 0.26 µM
- CC(C)CC1Cc2c(-c3cc[nH]n3)sc(SC3CCCC3)c2C(=O)N1 (stereo not drawn) [Example 34, 6-(2-methylpropyl)-3-(cyclopentylsulfanyl)-1-(1H-pyrazol-3-yl)-6,7-dihydrothieno[3,4-c]pyridin-4(5)-one] — 23-fold lower, 0.11 µM
- CC1Cc2c(-c3cc[nH]n3)sc(NC3CCCC3)c2C(=O)N1 (stereo not drawn) [Example 87, 3-(cyclopentylamino)-6-methyl-1-(1H-pyrazol-3-yl)-6,7-dihydrothieno[3,4-c]pyridin-4(5H)-one] — 7.8-fold lower, 0.32 µM
- CNc1sc(-c2cc[nH]n2)c2c1C(=O)NC(Cc1ccccc1)C2 (stereo not drawn) [Example 93, 3-(methylamino)-6-benzyl-1-(1H-pyrazol-3-yl)-6,7-dihydrothieno[3,4-c]pyridin-4(5H)-one] — 7.6-fold lower, 0.33 µM
- C[C@@H]1Cc2c(-c3cc[nH]n3)sc(NC3CCCC3)c2C(=O)N1 [Example 98, (6R)-3-(cyclopentylamino)-6-methyl-1-(1H-pyrazol-3-yl)-6,7-dihydrothieno[3,4-c]pyridin-4(5H)-one] — 7.6-fold lower, 0.33 µM
- CSc1sc(-c2cc[nH]n2)c2c1C(=O)N(CCC1CCCNC1)CC2 (stereo not drawn) [Example 73, 3-(methylsulfanyl)-5-[2-(3-piperidinyl)ethyl]-1-(1H-pyrazol-3-yl)-6,7-dihydrothieno[3,4-c]pyridin-4(5)-one] — 2.4-fold higher, 5.9 µM
- CSc1sc(-c2cc[nH]n2)c2c1C(=O)N(C)CC2 [Example 75, 5-methyl-3-(methylsulfanyl)-1-(1H-pyrazol-3-yl)-6,7-dihydrothieno[3,4-c]pyridin-4(5)-one] — within 1.5-fold, 3.3 µM
- C[C@H]1Cc2c(-c3cc[nH]n3)sc(NC3CCCC3)c2C(=O)N1 [Example 97, (6S)-3-(cyclopentylamino)-6-methyl-1-(1H-pyrazol-3-yl)-6,7-dihydrothieno[3,4-c]pyridin-4(5H)-one] — 7.8-fold lower, 0.32 µM
- CC(C)CC1Cc2c(-c3cc[nH]n3)sc(NC3CCCC3)c2C(=O)N1 (stereo not drawn) [Example 89, 3-(cyclopentylamino)-6-(2-methyl)propyl-1-(1H-pyrazol-3-yl)-6,7-dihydrothieno[3,4-c]pyridin-4(5H)-one] — 13-fold lower, 0.19 µM
- CCN1CCc2c(-c3cc[nH]n3)sc(SC)c2C1=O [Example 76, 5-ethyl-3-(methylsulfanyl)-1-(1H-pyrazol-3-yl)-6,7-dihydrothieno[3,4-c]pyridin-4(5)-one] — within 1.5-fold, 2.2 µM
- CSc1sc(-c2cc[nH]n2)c2c1C(=O)N(CC1CCOCC1)CC2 [Example 66, 5-[(4-tetrahydropyranyl)methyl]-3-(methylsulfanyl)-1-(1H-pyrazol-3-yl)-6,7-dihydrothieno[3,4-c]pyridin-4(5)-one] — within 1.5-fold, 3.7 µM
- COc1cccc(N2CCc3c(-c4cc[nH]n4)sc(SC)c3C2=O)c1 [Example 84, 5-(3-methoxyphenyl)-3-(methylsulfanyl)-1-(1H-pyrazol-3-yl)-6,7-dihydrothieno[3,4-c]pyridin-4(5)-one] — 1.9-fold higher, 4.7 µM
- O=C1NCCc2c(-c3cc[nH]n3)sc(SC3CCCC3)c21 [Example 30, 3-(Cyclopentylsulfanyl)-1-(1H-pyrazol-3-yl)-6,7-dihydrothieno[3,4-c]pyridin-4(5H)-one] — 8.6-fold lower, 0.29 µM
- CSc1sc(-c2cc[nH]n2)c2c1C(=O)NC1(CCC1)C2 [Example 5, 3′-(methylsulfanyl)-4′-oxo-1′-(1H-pyrazol-3-yl)-7′H-spiro[cyclobutane-1,6′-thieno[3,4-1]pyridine]-4′(5′H)-one] — 16-fold lower, 0.16 µM
- CSc1sc(-c2cc[nH]n2)c2c1C(=O)N(c1ccccc1)CC2 [Example 81, 3-(Methylsulfanyl)-5-phenyl-1-(1H-pyrazol-3-yl)-6,7-dihydrothieno[3,4-c]pyridin-4(5H)-one] — within 1.5-fold, 2 µM
- CSc1sc(-c2cc[nH]n2)c2c1C(=O)NC1(CCCC1)C2 [Example 8, 3′-(methylsulfanyl)-4′-oxo-1′-(1H-pyrazol-3-yl)-7′H-spiro[cyclopentane-1,6′-thieno[3,4-1]pyridine]-4′(5′H)-one] — 11-fold lower, 0.22 µM
- CC(C)Sc1sc(-c2cc[nH]n2)c2c1C(=O)NCC2 [Example 41, 3-[2-(1-methyl)ethylsulfanyl]-1-(1H-pyrazol-3-yl)-6,7-dihydrothieno[3,4-c]pyridin-4(5)-one] — 5.4-fold lower, 0.46 µM
- CC1CNC(=O)c2c(SCC3CC3)sc(-c3cc[nH]n3)c21 (stereo in doubt) [Example 29] — 81-fold lower, 0.031 µM
- COCC1Cc2c(-c3cc[nH]n3)sc(SC)c2C(=O)N1 (stereo not drawn) [Example 11, 6-methoxymethyl-3-(methylsulfanyl)-1-(1H-pyrazol-3-yl)-6,7-dihydrothieno[3,4-c]pyridin-4(5)-one] — 7.4-fold lower, 0.34 µM
- CSc1sc(-c2cc[nH]n2)c2c1C(=O)NC[C@@H]2C [Example 21, (7R)-7-methyl-3-(methylsulfanyl)-1-(1H-pyrazol-3-yl)-6,7-dihydrothieno[3,4-c]pyridin-4(5)-one] — 16-fold lower, 0.16 µM
- CSc1sc(-c2cc[nH]n2)c2c1C(=O)N(C(C)C)CC2 [Example 54, 3-(Methylsulfanyl)-5-(propan-2-yl)-1-(1H-pyrazol-3-yl)-6,7-dihydrothieno[3,4-c]pyridin-4(5H)-one] — within 1.5-fold, 3.5 µM
- CSc1sc(-c2cc[nH]n2)c2c1C(=O)N(Cc1ccc(Br)cn1)CC2 [Example 57, 5-[(5-bromopyridin-2-yl)methyl]-3-(methylsulfanyl)-1-(1H-pyrazol-3-yl)-6,7-dihydrothieno[3,4-c]pyridin-4(5)-one] — 1.5-fold higher, 3.8 µM
- CNc1sc(-c2cc[nH]n2)c2c1C(=O)NC1(CCC1)C2 [Example 94, 3′-(methylamino)-4′-oxo-1′-(1H-pyrazol-3-yl)-7′H-spiro[cyclobutane-1,6′-thieno[3,4-1]pyridine]-4′(5′H)-one] — 4.5-fold lower, 0.55 µM
